{"source": "paper PMC10759609", "about": "“A novel PDPN antagonist peptide CY12-RP2 inhibits melanoma growth via Wnt/β-catenin and modulates the immune cells” (Journal of Experimental & Clinical Cancer Research : CR, 2024)", "key": {"A875 cells": {"test_system": "A875 cells", "format": "cell-based", "description": "(§1) Cell viability was determined using a CCK8 kit. Melanoma cells were plated into 96-well plates at a density of 5 × 10^3 cells/well. The cells were then treated with peptides at the determined concentrations for 24, 48, and 72 h. The CCK-8 (10 μL/ well) was pipetted into each well and the cells were incubated at 37 °C for 1~3 h. The viable cells were calculated by performing absorbance readings at 450 nm using a microplate reader (BioTek)."}, "A375 cells": {"test_system": "A375 cells", "format": "cell-based", "description": "as §1"}, "A875 cellular spheroids": {"test_system": "A875 cellular spheroids", "assay": "3D spheroid diameter, A875", "format": "cell-based", "conditions": "only at 200 μM, 5 days", "description": "A375 and A875 cells were collected and suspended in Matrigel (Corning) with a density of 1.0 × 10^7 cells per mL. 3D spheroids were fabricate using cell-processing system that have two pumps. One pump was loaded with Matrigel and another with fluorocarbon oil (3 M NOVEC, HFE-7000). The flow rate of Matrigel was 20 μL/min and the fluorocarbon oil rate was 30 μL/min. The 3D spheroids were incubated at 37 °C with 5% CO2 after printing. Culturing medium was DMEM medium supplemented with 10% FBS, and 100 IU of penicillin and […] streptomycin. The medium was changed every 3 days. Afterward, the 3D spheroids were harvested for drug analysis.\nPrepared melanoma cells spheroids were plated in 48-well plates. Following incubation for 3 days, the spheroids were exposed to different concentrations (0, 50, 100 and 200 μM) of CY12-RP2, and changes in spheroid diameter were detected after 5 days of treatment. Additionally, melanoma cell spheroids were treated with various concentrations of CY12-RP2 as described previously, and after 72 h, the spheroids were stained for immunofluorescence with caspase 3 primary antibody. The specific experimental procedures refer to the following immunofluorescence analysis. Additionally, we co-cultured peptide-stimulated PBMC with spheroids to determine the tumor-killing ability of activated PBMC."}, "[1]": {"assay": "In vivo biodistribution (His-ELISA)", "set-up": "species or system BALB/c nude mice", "conditions": "His-CY12-RP2, 25 and 100 mg/kg, tail vein", "description": "In vivo biodistribution assay was conducted in BALB/c nude mice with melanoma tumor. Here we prepared 15 female BALB/c mice with subcutaneous melanoma tumor, and divided into three groups with each group of five. Mice were treated with His-CY12-RP2 by tail vein administration at various doses (25 mg/kg and 100 mg/kg). We collected at least 50 μL orbital blood samples by using capillary blood vessels at 6 h, 12 h, 24 h, 36 h, and 48 h, respectively. Five mice were used for the study of in vivo biodistribution of peptide. The organs including heart, liver, spleen, lung and kidney were collected after BALB/c nude mice were sacrificed at 48 h. The biodistribution of CY12-RP2 in blood and organs were measured using an ELISA kit (Shenzhen Ziker Biological Technology, Shenzhen, China) following the kit’s instructions.\nFig. S4: The inhibition of cells metastasis and invasion by CY12-RP2 can be […]\n(A, B) The inhibition of CY12-RP2 on the migration capacity of melanoma cell lines was reversed by SKL2001 (A). Statistical analysis was performed to determine the migrated distance (B). The power field scale bar, 100 μm. (C, D) Effect of CY12-RP2 on the invasive ability of melanoma cell lines were reversed by SKL2001 (C).\nStatistical analysis was performed to count the invaded cells (D). The power field scale bar, 100 μm. (E) Western blot assay was also performed to detect the proteins related to EMT and Wnt/β-catenin signaling pathway, including N-cadherin, Vimentin, snail, Dvl2, Phospho-β-catenin-S675, β-catenin, Phospho-GSK3β-Ser9 and GSK3β by CY12-RP2 with or without SKL2001 (50 μM). Data are presented as mean ± SD. *p < […]\n(A) TUNEL analysis of apoptosis was conducted on orthotopic xenografts tumor sections using fluorescence staining. […] (B) Fluorescence staining of Ki67 was carried out on orthotopic xenograft tumor sections.\nThe power field scale bar, 100 μm. (C) Serum His-CY12-RP2 levels of the orthotopic xenografts mice treated by various dosage of CY12-RP2 were measured by His-ELISA kit. […]\nkit. (E) Serum ALT, AST, TG, and γ-GT levels of the orthotopic xenografts model were measured by ELISA. […]"}, "[2]": {"biological_target": "T1, PDPN recombinant proteins (Homo sapiens, UniProt Q86YL7)", "T1 construct": "PDPN recombinant proteins were coated on the CM7 sensor chip", "T1 sequence (Q86YL7 23-162)": "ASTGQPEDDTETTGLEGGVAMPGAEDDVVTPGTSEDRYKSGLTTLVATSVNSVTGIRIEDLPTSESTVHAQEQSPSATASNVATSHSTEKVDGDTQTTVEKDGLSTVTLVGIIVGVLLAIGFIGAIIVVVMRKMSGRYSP", "assay": "SPR assay, binding to immobilized PDPN", "conditions": "CM7 chip, 100 μM to 0.00128 μM", "description": "SPR assay was conducted on a GE Biacore 3000 (Cytiva, USA) using a CM7 sensorchip for protein immobilization. All experimental steps were performed at a temperature of 24 °C and samples were kept at 4 °C. CY12-RP1 and CY12-RP2 peptides were diluted in the running buffer ([…] saline buffer, HBS-EP) at the final concentrations ranging from 100 μM to 0.00128 μM. The peptides were injected at a rate of 30 μL/min through immobilized PDPN for 240 s for association. All regenerations were introduced at a flow rate of 30 µL/min. SPR assay was performed in triplicate and the results were analyzed using Biacore 3000 software.\nTo further investigate the potential anti-tumor effect of PDPN antagonist on melanoma, we used a Ph.D.TM-12 Phage Display Peptide Library to screen for a PDPN antagonist peptide. After four rounds of biopanning under progressively stringent selection conditions in vitro, seven clones with individual amino acid sequences were obtained (Fig. 3A). To assess the anti-tumor effects of these seven peptides on melanoma cells, the proliferation of A375 and A875 cell lines after treating with various concentration peptides were examined by CCK8 assay. […] We then performed immunofluorescence, SPR assay, and flow cytometry to identify the binding specificity of CY12-RP1 and CY12-RP2 with PDPN in melanoma cells. […]"}}, "note": "Read-outs that look alike come from different tables or passages of the source. Peptide text beside a SMILES is read from it.", "data": [{"smiles": "CC(C)C[C@H](NC(=O)[C@H](Cc1ccc(O)cc1)NC(=O)[C@@H](N)[C@@H](C)O)C(=O)N[C@@H](CS)C(=O)N[C@H](C(=O)N[C@@H](C)C(=O)N[C@@H](CS)C(=O)N[C@@H](CC(=O)O)C(=O)N[C@@H](Cc1ccc(O)cc1)C(=O)N[C@H](C(=O)N[C@@H](Cc1c[nH]cn1)C(=O)N[C@@H](Cc1c[nH]cn1)C(=O)O)[C@@H](C)O)[C@@H](C)O", "note": "[CY12-RP2] (H-TYLCTACDYTHH-OH; N-terminus and C-terminus assumed)", "values": [{"measurement": "IC50", "setting": "A875 cells; 48 h", "value": 654, "unit": "µM"}, {"measurement": "IC50", "setting": "A875 cells; 72 h", "value": 117, "unit": "µM"}, {"measurement": "cell growth inhibition (in words)", "setting": "A875 cells; PDPN underexpressed A875, CCK8, various concentrations", "value": "relatively diminished impact"}, {"measurement": "IC50", "setting": "A375 cells; 24 h", "value": 602, "unit": "µM"}, {"measurement": "IC50", "setting": "A375 cells; 48 h", "value": 118, "unit": "µM"}, {"measurement": "IC50", "setting": "A375 cells; 72 h", "value": 55.2, "unit": "µM"}, {"measurement": "cell growth inhibition (in words)", "setting": "A375 cells; PDPN overexpressed A375, CCK8, various concentrations", "value": "dramatically inhibited cell growth in a dose-dependent manner"}, {"measurement": "relative spheroid diameter", "setting": "A875 cellular spheroids", "value": "only a high concentration of CY12-RP2 (200 μM) could decrease the diameter"}, {"measurement": "serum level after peak", "setting": "[1]; serum, 6-48 h", "value": "moderately decreased progressively with time"}, {"measurement": "time of peak serum level", "setting": "[1]; serum, sampled 6, 12, 24, 36, 48 h", "value": 6, "unit": "h"}, {"measurement": "organ distribution", "setting": "[1]; tumor vs heart, liver, spleen, lung, kidney at 48 h", "value": "significant ability to target tumors compared to other organs"}, {"measurement": "binding to PDPN (in words)", "setting": "[2]", "value": "bound to PDPN in a dose-dependent manner"}]}]}
